{"source": "PubChem BioAssay (NCI)", "test_in_all_cases": "NCI-60 cell line screen, 48 h", "key": {"[1]": {"system": "SF-268 CNS"}, "[2]": {"system": "OVCAR-5 ovarian"}, "[3]": {"system": "OVCAR-3 ovarian"}, "[4]": {"system": "SK-MEL-5 melanoma"}, "[5]": {"system": "SN12C renal"}, "[6]": {"system": "U251 CNS"}, "[7]": {"system": "ACHN renal"}, "[8]": {"system": "MCF7 breast"}, "[9]": {"system": "MOLT-4 leukemia"}, "[10]": {"system": "TK-10 renal"}, "[11]": {"system": "A498 renal"}, "[12]": {"system": "OVCAR-8 ovarian"}, "[13]": {"system": "UO-31 renal"}, "[14]": {"system": "NCI-H226 lung"}, "[15]": {"system": "T-47D breast"}, "[16]": {"system": "PC-3 prostate"}, "[17]": {"system": "SW-620 colon"}, "[18]": {"system": "786-0 renal"}, "[19]": {"system": "SF-539 CNS"}, "[20]": {"system": "SK-MEL-28 melanoma"}, "[21]": {"system": "MDA-MB-231 breast"}, "[22]": {"system": "UACC-62 melanoma"}, "[23]": {"system": "K-562 leukemia"}, "[24]": {"system": "HS 578T breast"}, "[25]": {"system": "CAKI-1 renal"}, "[26]": {"system": "RPMI-8226 leukemia"}, "[27]": {"system": "COLO 205 colon"}}, "note": "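Five concentrations, 48 hours, 96-well plates. Here, GI50 denotes the concentration required for 50% inhibition of growth. At the TGI there is no net growth.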", "data": [{"smiles": "Oc1ccccc1CNCC12CC3CC(CC(C3)C1)C2", "values": [{"measurement": "GI50", "setting": "[1]", "value": 46.8, "unit": "µM"}, {"measurement": "TGI", "setting": "[1]", "value": "> 100", "unit": "µM"}, {"measurement": "GI50", "setting": "[2]", "value": 33, "unit": "µM"}, {"measurement": "TGI", "setting": "[2]", "value": "> 100", "unit": "µM"}, {"measurement": "GI50", "setting": "[3]", "value": 57.5, "unit": "µM"}, {"measurement": "TGI", "setting": "[3]", "value": "> 100", "unit": "µM"}, {"measurement": "GI50", "setting": "[4]", "value": 13.5, "unit": "µM"}, {"measurement": "TGI", "setting": "[4]", "value": 26.9, "unit": "µM"}, {"measurement": "GI50", "setting": "[5]", "value": 32.6, "unit": "µM"}, {"measurement": "TGI", "setting": "[5]", "value": "> 100", "unit": "µM"}, {"measurement": "GI50", "setting": "[6]", "value": 20.7, "unit": "µM"}, {"measurement": "TGI", "setting": "[6]", "value": 49.3, "unit": "µM"}, {"measurement": "GI50", "setting": "[7]", "value": 39.6, "unit": "µM"}, {"measurement": "TGI", "setting": "[7]", "value": "> 100", "unit": "µM"}, {"measurement": "GI50", "setting": "[8]", "value": 16.8, "unit": "µM"}, {"measurement": "TGI", "setting": "[8]", "value": 34.7, "unit": "µM"}, {"measurement": "GI50", "setting": "[9]", "value": 24.5, "unit": "µM"}, {"measurement": "TGI", "setting": "[9]", "value": 70.2, "unit": "µM"}, {"measurement": "GI50", "setting": "[10]", "value": 31.2, "unit": "µM"}, {"measurement": "TGI", "setting": "[10]", "value": "> 100", "unit": "µM"}, {"measurement": "GI50", "setting": "[11]", "value": 10.4, "unit": "µM"}, {"measurement": "TGI", "setting": "[11]", "value": 31.5, "unit": "µM"}, {"measurement": "GI50", "setting": "[12]", "value": 79.9, "unit": "µM"}, {"measurement": "TGI", "setting": "[12]", "value": "> 100", "unit": "µM"}, {"measurement": "GI50", "setting": "[13]", "value": 20.3, "unit": "µM"}, {"measurement": "TGI", "setting": "[13]", "value": "> 100", "unit": "µM"}, {"measurement": "GI50", "setting": "[14]", "value": 68.5, "unit": "µM"}, {"measurement": "TGI", "setting": "[14]", "value": "> 100", "unit": "µM"}, {"measurement": "GI50", "setting": "[15]", "value": 20.1, "unit": "µM"}, {"measurement": "TGI", "setting": "[15]", "value": 44.6, "unit": "µM"}, {"measurement": "GI50", "setting": "[16]", "value": 26, "unit": "µM"}, {"measurement": "TGI", "setting": "[16]", "value": "> 100", "unit": "µM"}, {"measurement": "GI50", "setting": "[17]", "value": 24.3, "unit": "µM"}, {"measurement": "TGI", "setting": "[17]", "value": 84.8, "unit": "µM"}, {"measurement": "GI50", "setting": "[18]", "value": 16.2, "unit": "µM"}, {"measurement": "TGI", "setting": "[18]", "value": 33.5, "unit": "µM"}, {"measurement": "GI50", "setting": "[19]", "value": 33.3, "unit": "µM"}, {"measurement": "TGI", "setting": "[19]", "value": "> 100", "unit": "µM"}, {"measurement": "GI50", "setting": "[20]", "value": 23.6, "unit": "µM"}, {"measurement": "TGI", "setting": "[20]", "value": 52.7, "unit": "µM"}, {"measurement": "GI50", "setting": "[21]", "value": 27.7, "unit": "µM"}, {"measurement": "TGI", "setting": "[21]", "value": "> 100", "unit": "µM"}, {"measurement": "GI50", "setting": "[22]", "value": 17.8, "unit": "µM"}, {"measurement": "TGI", "setting": "[22]", "value": 38.7, "unit": "µM"}, {"measurement": "GI50", "setting": "[23]", "value": 5.39, "unit": "µM"}, {"measurement": "TGI", "setting": "[23]", "value": "> 100", "unit": "µM"}, {"measurement": "GI50", "setting": "[24]", "value": 19.4, "unit": "µM"}, {"measurement": "TGI", "setting": "[24]", "value": 74.4, "unit": "µM"}, {"measurement": "GI50", "setting": "[25]", "value": 37, "unit": "µM"}, {"measurement": "TGI", "setting": "[25]", "value": "> 100", "unit": "µM"}, {"measurement": "GI50", "setting": "[26]", "value": 18.1, "unit": "µM"}, {"measurement": "TGI", "setting": "[26]", "value": 45, "unit": "µM"}, {"measurement": "GI50", "setting": "[27]", "value": 15.6, "unit": "µM"}]}]}
